{"source": "patent US10800792B2", "about": "“Inhibitors of Bruton's tyrosine kinase and method of their use” (JANSSEN PHARMACEUTICA NV, priority 2015, dated 2020)", "target": "unphosphorylated-BTK kinase domain (UP-BTK), GST-tagged human BTK (389-659aa) (Homo sapiens (Human), UniProt Q06187)", "sequence (Q06187 389-659)": "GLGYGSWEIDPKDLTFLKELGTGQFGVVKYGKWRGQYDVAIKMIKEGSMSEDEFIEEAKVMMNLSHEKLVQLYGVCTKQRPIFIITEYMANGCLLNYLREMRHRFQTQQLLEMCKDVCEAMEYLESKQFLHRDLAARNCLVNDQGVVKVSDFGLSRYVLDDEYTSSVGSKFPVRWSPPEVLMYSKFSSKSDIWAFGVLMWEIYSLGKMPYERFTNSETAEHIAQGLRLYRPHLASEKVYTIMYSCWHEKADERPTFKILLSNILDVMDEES", "assay": "BTK kinase Lanthascreen binding assay", "conditions": "pIC50 = negative log of the IC50 in molar", "in_short": "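Lanthascreen competition binding; test compound vs fluorescent tracer on unphosphorylated BTK. Output: pIC50 (−log IC50, M).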", "key": {"[1]": {"conditions": "Lanthascreen tracer competition, 60 minutes incubation"}, "[2]": {"conditions": "unphosphorylated-BTK kinase domain, 50 nM Tracer 236, 60 minutes"}, "[3]": {"conditions": "60 minutes incubation, 50 nM Tracer 236"}}, "data": [{"smiles": "Cc1cc(OC(C)C)ncc1N1C(=O)Nc2c(C(=O)N[C@@H]3CCCNC3)sc3nccc1c23", "note": "(single isomer, unassigned) [Example 794, (R)-5-(*S)-(6-Isopropoxy-4-methylpyridin-3-yl)-4-oxo-N-(piperidin-3-yl)-4,5-dihydro-3H-1-thia-3,5,8-triazaacenaphthylene-2-carboxamide]", "values": [{"measurement": "BTK_I_binding pIC50", "setting": "[1]", "result": 6.5}]}, {"smiles": "Cc1cc(Oc2ccccc2)ccc1N1C(=O)Nc2c(C(=O)N[C@H]3CNC(=O)C3)sc3nccc1c23", "note": "(single isomer, unassigned) [Example 472, (*R)-5-(*R)-(2-Methyl-4-phenoxyphenyl)-4-oxo-N-(5-oxopyrrolidin-3-yl)-4,5-dihydro-3H-1-thia-3,5,8-triazaacenaphthylene-2-carboxamide]", "values": [{"measurement": "BTK_I_binding pIC50", "setting": "[2]", "result": 7.4}]}, {"smiles": "C=CC(=O)N1CCC[C@@H](NC(=O)c2sc3nccc4c3c2NC(=O)N4c2cnc(Oc3ccccc3)nc2C)C1", "note": "(single isomer, unassigned) [Example 746, (R)—N-(1-Acryloylpiperidin-3-yl)-5-(*S)-(4-methyl-2-phenoxypyrimidin-5-yl)-4-oxo-4,5-dihydro-3H-1-thia-3,5,8-triazaacenaphthylene-2-carboxamide]", "values": [{"measurement": "BTK_I_binding pIC50", "setting": "[1]", "result": 8.1}]}, {"smiles": "N#C/C(=C\\C1CC1)C(=O)N1CCC[C@@H](NC(=O)c2sc3nccc4c3c2NC(=O)N4c2ccc(Oc3ccccc3)cc2)C1", "note": "[Example 47, (R,E)-N-(1-(2-Cyano-3-cyclopropylacryloyl)piperidin-3-yl)-4-oxo-5-(4-phenoxyphenyl)-4,5-dihydro-3H-1-thia-3,5,8-triazaacenaphthylene-2-carboxamide]", "values": [{"measurement": "BTK_I_binding pIC50", "setting": "[3]", "result": 8.0}]}, {"smiles": "Cc1cc(Oc2ccccc2)ccc1N1C(=O)Nc2c(C(=O)N[C@H]3CN(C)CC(F)(F)C3)sc3nccc1c23", "note": "[Example 272, (R)—N-(5,5-Difluoro-1-methylpiperidin-3-yl)-5-(2-methyl-4-phenoxyphenyl)-4-oxo-4,5-dihydro-3H-1-thia-3,5,8-triazaacenaphthylene-2-carboxamide]", "values": [{"measurement": "BTK_I_binding pIC50", "setting": "[3]", "result": 6.3}]}, {"smiles": "C=CC(=O)N1CCC[C@@H](NC(=O)c2sc3nccc4c3c2NC(=O)N4c2ccc(Oc3ccccc3)cc2C(F)(F)F)C1", "note": "[Example 278, (R)—N-(1-Acryloylpiperidin-3-yl)-4-oxo-5-(4-phenoxy-2-(trifluoromethyl)phenyl)-4,5-dihydro-3H-1-thia-3,5,8-triazaacenaphthylene-2-carboxamide]", "values": [{"measurement": "BTK_I_binding pIC50", "setting": "[3]", "result": 6.2}]}, {"smiles": "COCCC(=O)N1C[C@H](NC(=O)c2sc3nccc4c3c2NC(=O)N4c2ccc(Oc3ccccc3)cc2C)[C@@H](O)C1", "note": "[Example 139, N-((3S,4S)-4-Hydroxy-1-(3-methoxypropanoyl)pyrrolidin-3-yl)-5-(2-methyl-4-phenoxyphenyl)-4-oxo-4,5-dihydro-3H-1-thia-3,5,8-triazaacenaphthylene-2-carboxamide]", "values": [{"measurement": "BTK_I_binding pIC50", "setting": "[3]", "result": 7.2}]}, {"smiles": "Cc1cc(Oc2ccccc2)ccc1N1C(=O)Nc2c(C(=O)NCC(=O)N3CCOCC3)sc3nccc1c23", "note": "[Example 315, 5-(2-Methyl-4-phenoxyphenyl)-N-(2-morpholino-2-oxoethyl)-4-oxo-4,5-dihydro-3H-1-thia-3,5,8-triazaacenaphthylene-2-carboxamide]", "values": [{"measurement": "BTK_I_binding pIC50", "setting": "[2]", "result": 6.9}]}, {"smiles": "CN(C)C/C=C/C(=O)N1CC[C@@H](NC(=O)c2sc3nccc4c3c2NC(=O)N4c2cccc(-c3ccccc3)c2)C1", "note": "[Example 570, (R,E)-5-([1,1′-Biphenyl]-3-yl)-N-(1-(4-(dimethylamino)but-2-enoyl)pyrrolidin-3-yl)-4-oxo-4,5-dihydro-3H-1-thia-3,5,8-triazaacenaphthylene-2-carboxamide]", "values": [{"measurement": "IC50", "setting": "unphosphorylated-BTK kinase domain, 50 nM Tracer 236, 60 minutes, read-out: BTK_I_binding pIC50 (converted)", "result": 63.1, "unit": "nM"}]}, {"smiles": "C=CC(=O)N1CCC[C@@H](NC(=O)c2sc3nccc4c3c2NC(=O)N4c2ccc(OC(C)C)nc2C)C1", "note": "(single isomer, unassigned) [Example 753, (R)—N-(1-Acryloylpiperidin-3-yl)-5-(*S)-(6-isopropoxy-2-methylpyridin-3-yl)-4-oxo-4,5-dihydro-3H-1-thia-3,5,8-triazaacenaphthylene-2-carboxamide]", "values": [{"measurement": "BTK_I_binding pIC50", "setting": "[1]", "result": 6.2}]}]}
